# Measurements published in patent publication US20060194776A1, “Compositions and methods for treating tissue ischemia” (priority 2003, published 2006).
# Where two headings read alike, the source gives them in different places.
# Key:
# [1] = system: endothelial progenitor cells (EPCs) in peripheral blood
# Experimental: (§1) Peripheral blood mononuclear cells (PBMNCS) were isolated from 500 μl of peripheral blood obtained from each mouse. PBMNCs were cultured in EBM media (Clonetics, San Diego, Calif.) with 5% fetal bovine serum (FBS), antibiotics, and growth factors (EPC medium) on four-well glass slides coated with rat plasma vitronectin (Sigma) in 0.5% gelatin solution. Four days after culture, EPCs, recognized as attaching spindle-shaped cells, were assayed by co-staining with acetylated LDL (acLDL)-DiI (Biomedical Technologies, Stoughton, Mass.) and Bandeiraea simplicifolia (BS-1) lectin I (Vector Laboratories, Burlingame, Calif.), indicators of endothelial lineage, and conjugated with FITC (Sigma). EPCs were identified as double-positive cells under fluorescent microscopy. The number of double-positive cells per sample, measured in fifteen fields under 20× magnification, was counted in a blinded manner.
# EPCs in peripheral blood = system: EPCs in peripheral blood
# Experimental: as §1
# To evaluate the effect of AMD-3100 on circulating EPC kinetics, EPC counts (cells/mm^2) were taken from peripheral blood one and two weeks after AMI. At each time point after the induction of MI, mononuclear cells were isolated from peripheral blood and total BM cells that had been obtained by flushing the tibias and femurs. EPCs were counted by culturing as described in Example 1, and stained with both acLDL-DiI and BS-1 lectin. Double positive cells were counted in 15 fields under objective 20× magnification per sample in a blinded manner.
# [2] = system: FVB mice after MI (LAD ligation)
# Experimental: (§2) Eight-week old male FVB mice were anesthetized with sodium pentobarbital (50 mg/kg IP). The animals were intubated orally with a 22G IV catheter and artificially ventilated with a respirator (Harvard Apparatus). A left intercostal thoracotomy was performed and the ribs were retracted with 5-0 polypropylene sutures. After the pericardium was opened, the left anterior descending (LAD) branch of the left coronary artery was ligated proximal to the bifurcation between the LAD and the diagonal branch using 8-0 polypropylene sutures and visualized with a dissecting microscope. Positive end-expiratory pressure was applied to fully inflate the lungs, and the chest was closed with 7-0 polypropylene sutures. After the closure of chest wall, mice randomly received either a single subcutaneous injection of 125 μg AMD3100 (AMD group) or saline (control group). After physiological assessment at one, two and four weeks after MI, a subgroup of the mice were euthanized by intravenous administration of a lethal dose of pentobarbital.
# Transthoracic echocardiography (SONOS 5500, Hewlett Packard) was performed just before MI and one, two and four weeks after MI. Left ventricular diastolic (LVDd) and systolic (LVDs) dimensions and fractional shortening were measured at the mid-papillary muscle level. Hemodynamic measurements were obtained at two and four weeks after MI using a 1.0-French high-fidelity pressure catheter (Millar Instruments, Houston, Tex.) via the left carotid artery. LV systolic pressure and maximal positive (+dP/dt) and negative (−dP/dt) pressure development were recorded after stabilization of LV function and heart rate.
# left ventricle fibrosis = details: two weeks after AMI
# Experimental: (§3) The explanted hearts of sacrificed mice were sliced in a bread-loaf fashion into transverse sections from apex to base (base-, mid-, and apex-portions) and fixed with 4% paraformaldehyde. Tissues were embedded in paraffin and sectioned for elastic tissue/trichrome staining and immunohistochemistry using the murine-specific EC marker Bandeiraea simplicifolia lectin I (Isolectin B4) (Vector laboratories).
# (§4) Capillary density was assessed by histological examination of five randomly selected fields of tissue sections from segments of the left ventricular myocardium served by the occluded LAD. Capillaries were recognized as tubular structures positive for isolectin B4. Elastic tissue/trichrome-stained tissues from the mice four weeks after MI were used to measure the average ratio of the external circumference of fibrosis area to LV area.
# [3] = system: capillaries of left ventricular myocardium; details: two weeks after AMI
# Experimental: as §3, §4
# MMP-2 = details: one week after MI; RT-PCR
# Experimental: To clarify the mechanism of BM-EPC kinetics induced by AMD3100, RT-PCR was performed for MMP-9 mRNA expression on BM-mononuclear cells one week after MI was performed. RNA was extracted from mononuclear cells isolated from bone marrow using TRIzol reagent (Invitrogen) according to the manufacture's instruction. Reverse transcriptase-polymerase chain reaction (RT-PCR) of the MMP-9 and GAPDH genes was performed using 1 μg of total RNA. PCR was performed for 25 cycles for both MMP-9 and GAPDH; each cycle maintained 94° C. for 30 seconds and 64° C. for three minutes. Amplification was carried out in 20-μl reaction mixtures containing 0.4 U Taq polymerase.
# [4] = system: BS lectin 1 and β-gal double-positive cells; details: one week after AMI; 400×
# Experimental: Apex-sections from the Tie-2/LZ/BMT mice were embedded in OCT compound (Miles Scientific) and snap-frozen in liquid nitrogen for fluorescence microscopy immediately after sacrifice. Immunohistochemical staining was performed using antibodies against the rabbit anti-B-galactosidase IgG (CORTEX Biochem) and the murine-specific EC marker fluorescein griffonia simplicifolia lectin I (Vector Laboratories).
# Sections of ischemic (FIGS. 12A-12F) and intact (FIGS. 13A-13F) myocardium were stained for both BS lectin 1 (green fluorescence) and β-galactosidase (red fluorescence).
# [5] = system: EPCs isolated from peripheral blood; details: one week after MI
# Experimental: (§5) Fluorescence-activated cell sorting (FACS) was used to identify EPCs from mononuclear cells isolated both from peripheral blood and bone marrow. The viable mononuclear cell population was analyzed for the expression of Sca-1-FITC (Pharmingen) and Flk-1 (Santa Cruz) conjugated with the corresponding phycoerythrin-labeled secondary antibody (Sigma). Isotype-identical antibodies served as negative controls. Immunofluorescence-labeled cells were fixed with 2% paraformaldehyde and analyzed by quantitative flow cytometry using a FACStar flow cytometer (Becton Dickinson) and Cell Quest Software that counted 10,000 events per sample.
# [6] = system: EPCs in BM mononuclear cells; details: one week after MI
# Experimental: as §5
# [7] = system: X-gal positive cells (bone-marrow derived endothelial cells) in left ventricle; details: for number of X-gal positive cells: infarct and border area, Tie2-LacZ/BMT mice
# Description: This Example describes the experimental design of the Tie2-LacZ/BMT mouse model. […] FVB/N background mice (n=30) were irradiated to kill their endogenous bone marrow. They were then given a bone marrow transplant (BMT) of 2×10^6 mononuclear cells (MNCs) derived from age-matched (4 weeks old) Tie2-LacZ mice (FVB/N-TgN[TIE2LacZ]182Sato, Jackson Lab). AMIs were induced in the mice (now called Tie2-LacZ/BMT mice) by LAD ligation four weeks after BMT, by which time the bone marrow of the recipient mice had been reconstituted. Right after AMI, the mice were each given a single subcutaneous injection of AMD-3100 (125 μg) or saline (control). Bone marrow cells were obtained using procedures described above. Bone marrow mononuclear cells were also isolated by density centrifugation. Tissue analysis was done at one or two weeks.
# Tie-2/LZ/BMT mice were sacrificed at one and two weeks after MI. The explanted hearts were sliced in a bread-loaf fashion into transverse sections from apex to base (base-, mid-, and apex-portions). Mid-portions of the hearts were fixed in 4% paraformaldehyde for three hours at room temperature and incubated in X-gal solution overnight at 37° C. The target tissue samples were then placed in PBS [need to spell this out] and examined under a dissecting microscope for macroscopic identification of lacZ-expressing cells. Histological sections of the mid-portion heart tissue were counterstained with hematoxylin and eosin and assessed by light microscopy. The number of X-gal positive cells in six randomly chosen fields at 40× magnification were counted in a blinded manner.
# Left ventricle sections of AMD-3100-treated and control Tie2-LacZ/BMT mice were analyzed one and two weeks after AMI. […] The quantitative analysis of X-gal positive cells was evaluated by histological examination of six randomly selected fields in the infarct and border area.
# mice after AMI = system: mice after AMI
# Experimental: as §2
# All values were expressed as mean±the standard error of the mean. Statistical significance was evaluated using Wilcoxon Rank Sum Test for comparisons between mice receiving AMD3100 and those receiving saline. Overall survival of all the mice was assessed by Kaplan-Meier analysis. Survival in individual experimental groups was also analyzed by Fisher's extract probability test. A p value of less than 0.05 was considered statistically significant.
# [8] = 1 week after MI, 125 μg s.c. after MI
# [9] = 2 weeks after MI, 125 μg s.c. after MI
# [10] = 2 weeks after MI, 125 μg s.c. after MI, listed as AMD
# [11] = 4 weeks after MI, 125 μg s.c. after MI
# [12] = 4 weeks after MI, 125 μg s.c. after MI, listed as AMD
structure (smiles),measurement,setting,value
"c1cc(CN2CCCNCCNCCCNCC2)ccc1CN1CCCNCCNCCCNCC1 [AMD-3100, 1,1′-[1,4-phenylene-bis(methylene)]-bis-1,4,8,11-tetraazacyclotetradecane]",maximal MNCs and EPCs (number),"[1]; 1 hour after single s.c. injection of 125 μg, FVB/N mice, peripheral blood",613±89 cells/mm^2
same,time until MNC/EPC numbers returned to baseline,[1]; after single s.c. injection of 125 μg,≤ 24 h
same,time of maximal MNCs and EPCs after drug administration,[1]; single s.c. injection of 125 μg,1 h
same,number of cultured EPCs,EPCs in peripheral blood; four weeks after AMI,returned to basline
same,number of EPCs in peripheral blood,EPCs in peripheral blood; one week after AMI,868±210 /mm^2
same,number of EPCs in peripheral blood,EPCs in peripheral blood; two weeks after AMI,556±47 /mm^2
same,FS (fractional shortening),[2]; [8],35 ± 2%
same,HR (heart rate),[2]; [8],494 ± 24 bpm
same,LVDd,[2]; [8],3.5 ± 0.1 mm
same,LVDs,[2]; [8],2.2 ± 0.1 mm
same,FS (fractional shortening),[2]; [9],34±1%
same,HR (heart rate),[2]; [9],515 ± 16 bpm
same,LV +dP/dt,[2]; [9],3383±104 mm Hg/s
same,LV −dP/dt,[2]; [9],2213±113 mm Hg/s
same,LVDd,[2]; [9],3.8±0.1 mm
same,LVDs,[2]; [9],2.5±0.1 mm
same,LVEDP,[2]; [9],1.6±0.4 mmHg
same,LVSP,[2]; [9],71±2 mmHg
same,FS (fractional shortening),[2]; [10],34±1%
same,LV +dP/dt,[2]; [10],3475±168 mm Hg/s
same,LV −dP/dt,[2]; [10],2842 ± 200 mm Hg/s
same,LVDd,[2]; [10],3.8 ± 0.1 mm
same,LVDs,[2]; [10],2.5 ± 0.1 mm
same,LVEDP,[2]; [10],1.5±0.2 mmHg
same,LVSP,[2]; [10],73 ± 3 mmHg
same,LVDd,"[2]; 2 weeks after MI, 125 μg s.c. after MI, listed as AMD3100",3.8±0.1 mm
same,LVDs,[2]; 3 wks after MI (as printed in text),2.5±0.2 mm
same,HR (heart rate),[2]; [11],473 ± 26 bpm
same,LV −dP/dt,[2]; [11],2213 ± 112 mm Hg/s
same,LVDd,[2]; [11],4.0±0.1 mm
same,LVDs,[2]; [11],2.6±0.2 mm
same,FS (fractional shortening),[2]; [12],28±1%
same,LV +dP/dt,[2]; [12],3383±104 mm Hg/s
same,LVDd,[2]; [12],4.0 ± 0.1 mm
same,LVDs,[2]; [12],2.9 ± 0.1 mm
same,LVEDP,[2]; [12],1.6±0.4 mmHg
same,LVSP,[2]; [12],71±2 mmHg
same,difference in heart rate between the two groups,"[2]; after MI, vs control group",no significant difference
same,FS (fractional shortening),[2]; before MI,52 ± 1%
same,HR (heart rate),[2]; before MI,510 ± 26 bpm
same,LVDd,[2]; before MI,2.8 ± 0.1 mm
same,LVDs,[2]; before MI,1.4 ± 0.1 mm
same,"LVDd, LVDs, fractional shortening, and heart rate, difference between the groups","[2]; before MI and one week after MI, vs saline",not significantly different
same,difference in LVSP between the groups,"[2]; two weeks after MI, vs control",no significant difference
same,fibrosis area of left ventricle,left ventricle fibrosis,25±6%
same,capillary density in border zone,[3],4005±189 /mm^2
same,expression of MMP-2 in BM mononuclear cells,MMP-2,not
same,double-positive cells in a representative section,[4],eight
same,double-positive cells in another representative section,[4],eight
same,double-positive cells in tissue (merged fluorescence microscopy),[4],marked increase
same,EPCs (Sca-1/Flk-1 double positive) in peripheral blood by FACS,[5],11.3±1.4%
same,EPCs (Sca-1/Flk-1 positive) in BM mononuclear cells by FACS,[6],1.9±0.1%
same,number of X-gal positive cells,[7]; 1 week after AMI,3776±113 /mm2
same,number of X-gal positive cells,[7]; 2 weeks after AMI,1906±138 μmm2
same,X-gal staining of the left ventricle (macroscopic) vs controls,[7]; one and two weeks after AMI,marked increase
same,mice still living,"mice after AMI; 14 weeks after AMI (so in the source), FIG. 4A",64%
same,mice died,"mice after AMI; another group of mice, four weeks after MI, FIG. 4B",42%
same,survival rate vs mice receiving saline,"mice after AMI; four weeks after MI, FIG. 4B",higher
